# Calls of active or inactive are those of the source. The calls are words filed in the database; no cut-off is given here.
# Columns and labels:
# MCF7 = test: cells; details: Homo sapiens, MCF7, 72 h
# Description: Cytotoxicity against human MCF7 cells assessed as reduction in cell viability after 72 hrs by MTT assay
# PC-3 = test: Cytotoxicity against human PC3 cells assessed as reduction in cell viability after 72 hrs by MTT assay; assay type: functional, cell-based; details: PC-3, 72 h
# A549 [1] = test: Cytotoxicity against human A549 cells assessed as reduction in cell viability after 72 hrs by MTT assay; assay type: functional, cell-based; details: A549, 72 h
# MDA-MB-231 = test: cells; details: Homo sapiens, MDA-MB-231, 72 h
# Description: Cytotoxicity against human MDA-MB-231 cells assessed as reduction in cell viability after 72 hrs by MTT assay
# HCT-116 = test: Cytotoxicity against human HCT116 cells assessed as reduction in cell viability after 72 hrs by MTT assay; assay type: functional, cell-based; details: HCT-116, 72 h
# [2] = target: Serine/threonine-protein kinase PLK1 (Homo sapiens) (UniProt P53350); test: Inhibition of recombinant human N-terminal His6-tagged PLK1 expressed in baculovirus infected Sf21 insect cells at 1 uM using FAM-labelled peptide as substrate preincubated for 10 mins followed by substrate addition measured after 1 hr relative to control
# A549 [3] = test: Antimigratory activity in human A549 cells assessed as wound healing at 1 uM after 24 hrs by fluorescence microscopic method (reference value: 58.5%); assay type: functional
# A549 [4] = test: Induction of apoptosis in human A549 cells assessed as late apoptotic cells at 1 uM after 24 hrs by acridine orange/ethidium bromide staining-based fluorescence microscopic method; assay type: functional, cell-based
# A549 [5] = test: Cell cycle arrest in human A549 cells assessed as accumulation at G1 phase at 0.2 uM after 24 hrs by propidium iodide staining based flow cytometric analysis (reference value: 63.34%); assay type: functional
# A549 [6] = test: Cell cycle arrest in human A549 cells assessed as accumulation at S phase at 0.2 uM after 24 hrs by propidium iodide staining based flow cytometric analysis (reference value: 29.93%); assay type: functional
# A549 [7] = test: Cell cycle arrest in human A549 cells assessed as accumulation at S phase at 1 uM after 24 hrs by propidium iodide staining based flow cytometric analysis (reference value: 29.93%); assay type: functional
# A549 [8] = test: Cell cycle arrest in human A549 cells assessed as accumulation at G1 phase at 1 uM after 24 hrs by propidium iodide staining based flow cytometric analysis (reference value: 63.34%); assay type: functional
# A549 [9] = test: Cell cycle arrest in human A549 cells assessed as accumulation at G1 phase at 5 uM after 24 hrs by propidium iodide staining based flow cytometric analysis (reference value: 63.34%); assay type: functional
# A549 [10] = test: Antimigratory activity in human A549 cells assessed as wound healing at 1 uM after 36 hrs by fluorescence microscopic method (reference value: 100%); assay type: functional
# A549 [11] = test: Antimigratory activity in human A549 cells assessed as wound healing at 0.2 uM after 12 hrs by fluorescence microscopic method (reference value: 26.2%); assay type: functional
# A549 [12] = test: Induction of apoptosis in human A549 cells assessed as late apoptotic cells at 5 uM after 24 hrs by acridine orange/ethidium bromide staining-based fluorescence microscopic method; assay type: functional, cell-based
# A549 [13] = test: Cell cycle arrest in human A549 cells assessed as accumulation at G2 phase at 0.2 uM after 24 hrs by propidium iodide staining based flow cytometric analysis (reference value: 6.73%); assay type: functional
# A549 [14] = test: Antimigratory activity in human A549 cells assessed as wound healing at 1 uM after 12 hrs by fluorescence microscopic method (reference value: 26.2%); assay type: functional
# A549 [15] = test: Cell cycle arrest in human A549 cells assessed as accumulation at S phase at 5 uM after 24 hrs by propidium iodide staining based flow cytometric analysis (reference value: 29.93%); assay type: functional
# A549 [16] = test: Cell cycle arrest in human A549 cells assessed as accumulation at G2 phase at 1 uM after 24 hrs by propidium iodide staining based flow cytometric analysis (reference value: 6.73%); assay type: functional
# A549 [17] = test: Antimigratory activity in human A549 cells assessed as inhibition of wound healing up to 36 hrs by fluorescence microscopic method; assay type: functional, cell-based
# A549 [18] = test: Cell cycle arrest in human A549 cells assessed as accumulation at G2 phase at 5 uM after 24 hrs by propidium iodide staining based flow cytometric analysis (reference value: 6.73%); assay type: functional
# A549 [19] = test: Antimigratory activity in human A549 cells assessed as wound healing at 0.2 uM after 36 hrs by fluorescence microscopic method (reference value: 100%); assay type: functional
# A549 [20] = test: Antimigratory activity in human A549 cells assessed as wound healing at 0.2 uM after 24 hrs by fluorescence microscopic method (reference value: 58.5%); assay type: functional
# Chain of Serine/threonine-protein kinase PLK1 (Homo sapiens) (P53350 whole entry): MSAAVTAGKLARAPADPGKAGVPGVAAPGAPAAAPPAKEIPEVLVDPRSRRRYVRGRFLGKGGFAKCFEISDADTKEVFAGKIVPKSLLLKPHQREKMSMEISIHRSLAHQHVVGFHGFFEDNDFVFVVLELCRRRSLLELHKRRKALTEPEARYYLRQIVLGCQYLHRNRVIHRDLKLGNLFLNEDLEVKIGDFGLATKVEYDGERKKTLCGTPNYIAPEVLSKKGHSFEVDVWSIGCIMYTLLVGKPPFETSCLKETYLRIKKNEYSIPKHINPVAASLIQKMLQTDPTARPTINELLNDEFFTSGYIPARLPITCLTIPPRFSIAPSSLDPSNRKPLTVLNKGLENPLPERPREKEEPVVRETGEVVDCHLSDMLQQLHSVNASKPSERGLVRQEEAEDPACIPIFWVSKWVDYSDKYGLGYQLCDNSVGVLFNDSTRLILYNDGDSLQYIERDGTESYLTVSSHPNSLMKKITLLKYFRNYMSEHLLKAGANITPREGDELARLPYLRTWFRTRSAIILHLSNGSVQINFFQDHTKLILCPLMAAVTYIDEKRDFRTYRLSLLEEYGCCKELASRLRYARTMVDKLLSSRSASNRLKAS
IC50 (MCF7) [nM],IC50 (MDA-MB-231) [nM],inhibition [2] [%],SMILES,IC50 (PC-3) [nM],IC50 (A549 [1]) [nM],IC50 (HCT-116) [nM],also measured
510,2250,44.7,CCN1CCN(c2ccc(Nc3ncc4c(n3)n(C3CCCC3)c(=O)c3nnc(C)n34)cc2)CC1,5000,680,9610,
90,110,97.7,CC[C@@H]1C(=O)N(C)c2cnc(Nc3ccc(C(=O)N[C@H]4CC[C@H](N5CCN(CC6CC6)CC5)CC4)cc3OC)nc2N1C(C)C [VOLASERTIB],90,80,110,
300,700,86.4,Cc1nnc2c(=O)n(C3CCCC3)c3nc(Nc4ccc(N5CC(C)NC(C)C5)cc4)ncc3n12 (stereo unspecified),510,160,300,Activity (A549 [3]): 27.8%; Activity (A549 [4]): Active; Activity (A549 [5]): 74.99%; Activity (A549 [6]): 20.46%; Activity (A549 [7]): 14.54%; Activity (A549 [8]): 79.82%; Activity (A549 [9]): 82.32%; Activity (A549 [10]): 43.1%; Activity (A549 [11]): 25.1%; Activity (A549 [12]): Active; Activity (A549 [13]): 4.55%; Activity (A549 [14]): 24.4%; Activity (A549 [15]): 13.37%; Activity (A549 [16]): 5.64%; inhibition (A549 [17]): Dose-dependent effect; Activity (A549 [18]): 4.32%; Activity (A549 [19]): 51.4%; Activity (A549 [20]): 33.7%
500,1600,77.9,CC1CN(c2ccc(Nc3ncc4c(n3)n(C3CCCC3)c(=O)c3nnnn34)cc2)CC(C)N1 (stereo unspecified),1000,440,600,Activity (A549 [4]): Active; Activity (A549 [12]): Active
750,3350,28.2,Cc1nnc2c(=O)n(C3CCCC3)c3nc(Nc4ccc(N5CCN(CCO)CC5)cc4)ncc3n12,8440,5460,7610,
> 50000,15800,19.3,CN1CCN(c2ccc(Nc3ncc4c(n3)n(C3CCCC3)c(=O)c3nnnn34)cc2)CC1,3800,1250,19100,
410,4800,72.1,CC1CN(c2ccc(Nc3ncc4c(n3)n(C3CCCC3)c(=O)c3nncn34)cc2)CC(C)N1 (stereo unspecified),3260,890,4400,
> 50000,9120,31.6,Cc1nnc2c(=O)n(C3CCCC3)c3nc(Nc4ccc(N5CCN(C6CCCC6)CC5)cc4)ncc3n12,> 50000,11400,> 50000,
980,> 50000,27.4,CCN1CCN(c2ccc(Nc3ncc4c(n3)n(C3CCCC3)c(=O)c3nncn34)cc2)CC1,3480,1070,7500,
1050,610,26.1,Cc1nnc2c(=O)n(C3CCCC3)c3nc(Nc4ccc(N5CCN(C)CC5)cc4)ncc3n12,7610,1920,72800,
> 50000,> 50000,44.2,CN1CCN(c2ccc(Nc3ncc4c(n3)n(C3CCCC3)c(=O)c3nncn34)cc2)CC1,26500,6960,8000,
